# Laboratory results: PubChem BioAssay AID651630 (Sanford-Burnham Center for Chemical Genomics, 2012)
# Active and inactive are the calls of the source.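 The calls were made as follows: active = lipid-stain IC50 at or below a set limit, with nuclear-stain toxicity IC50 at least five times higher; inactive = the rest.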
# What was measured:
# DAPI = test: TAG lipid buildup inhibition with viability readout – cell-based, panel, Nile Red and DAPI fluorescence, H9c2, dose response (AID 651630); conditions: H9c2 cells, DAPI nuclear fluorescence (cytotoxicity counter-readout), oleic acid;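 also: cells exposed to compound overnight before fixation and staining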
# TAG = test: as above; conditions: H9c2 cells, Nile Red TAG fluorescence, oleic acid
Structure (SMILES),IC50 cytotoxicity (DAPI nuclear signal decrease) (DAPI; mean of runs),IC50 cytotoxicity (DAPI nuclear signal decrease) (DAPI; run 1) [µM],IC50 cytotoxicity (DAPI nuclear signal decrease) (DAPI; run 2) [µM],IC50 (TAG; mean of runs),IC50 (TAG; run 1) [µM],IC50 (TAG; run 2) [µM]
Cc1ccsc1-c1nc(C(N)=O)c2[nH]c(=O)n(-c3ccc(Cl)cc3)c2n1,> 25 µM (inactive),> 25,> 25,> 25 µM (inactive),> 25,> 25
COc1ccc2[nH]c3c(c2c1)CCN1C(=O)C(CC(=O)NCc2cccc(C(F)(F)F)c2)C[C@H](C(=O)N2CCCCC2)[C@@]31CCc1ccccc1 (some centres undefined),> 25 µM (inactive),> 25,> 25,10 µM,14.8,5.34
Cc1cccc(NC(=O)c2ccc([N+](=O)[O-])o2)c1C,10.3 µM (inactive),9.7,10.9,,19.8,> 25
O=C(Nc1nc(-c2ccccc2)cs1)C1CCCN(S(=O)(=O)c2cccc([N+](=O)[O-])c2)C1 (centres undefined),> 25 µM (inactive),> 25,> 25,,22.1,> 25
COc1cc(-c2cnc3c(NC=O)cc(-c4cccc(NC(C)=O)c4)cn23)cc(OC)c1OC,> 25 µM (inactive),> 25,> 25,5.44 µM,4.6,6.28
CCOC(=O)c1c(CN2CCNCC2)nc2ccc(Cl)cc2c1-c1ccccc1,16.8 µM (inactive),17.1,16.5,> 25 µM (inactive),> 25,> 25
Cc1ccc(C(=O)NCCN2C3=NC[C@H](C(C)C)N3C[C@H]2Cc2ccc(O)cc2)cc1Br,> 25 µM (inactive),> 25,> 25,16.8 µM (inactive),16.9,16.7
Cc1ccc(/C=N/NC(=O)c2cc(-c3cccnc3)nc3ccccc23)cc1,> 25 µM (inactive),> 25,> 25,> 25 µM (inactive),> 25,> 25
Cc1ccc(NC(=O)Cn2nnc(-c3ccccc3NC(=O)c3cccs3)n2)cc1,> 25 µM (inactive),> 25,> 25,5.75 µM,7.48,4.02
CCN(CC)CCNc1ncnc2c1sc1nc(N3CCCC3)c3c(c12)CC(C)(C)OC3,> 25 µM (inactive),> 25,> 25,18 µM (inactive),16.9,19.1
Cc1cccc(-c2ccc3[nH]c4c(c3c2)CCN2C[C@@H]([C@H](C)OC(=O)Nc3ccccc3C)[C@@H](N(C)C(=O)Nc3ccccc3C)C[C@@H]42)c1,> 25 µM (inactive),> 25,> 25,15.6 µM (inactive),15.5,15.6
COc1ccc(NC(=O)N(C)[C@H]2C[C@H]3c4[nH]c5ccc(-c6ccc7c(c6)OCO7)cc5c4CCN3C[C@H]2[C@H](C)O)cc1,> 25 µM (inactive),> 25,> 25,7.49 µM,8.2,6.77
COc1ccccc1N1CCN(CC(=O)Nc2cc(C)nn2-c2nc(C)cc(C)n2)CC1,> 25 µM (inactive),> 25,> 25,18.9 µM (inactive),19.7,18.1
COc1ccc(NS(=O)(=O)c2cccc(C(=O)N/N=C/c3cn(-c4ccccc4)nc3-c3ccccc3)c2)cc1,> 25 µM (inactive),> 25,> 25,8.79 µM,7.63,9.96
COc1ccc(S(=O)(=O)N2N=C(C)Oc3ccccc3C2=O)cc1,> 25 µM (inactive),> 25,> 25,> 25 µM (inactive),> 25,> 25
Cc1ccc(-c2nn(-c3ccccc3)cc2NC(=O)CCl)cc1,,20.6,> 25,> 25 µM (inactive),> 25,> 25

Structure (SMILES),IC50 cytotoxicity (DAPI nuclear signal decrease) (DAPI; mean of runs),IC50 cytotoxicity (DAPI nuclear signal decrease) (DAPI; run 1) [µM],IC50 cytotoxicity (DAPI nuclear signal decrease) (DAPI; run 2) [µM],IC50 (TAG; mean of runs),IC50 (TAG; run 1) [µM],IC50 (TAG; run 2) [µM]
COC(=O)C1=C(C)N(Cc2ccccc2)C(=NCC(C)C)N[C@H]1c1cccc(F)c1,> 25 µM (inactive),> 25,> 25,> 25 µM (inactive),> 25,> 25
CCn1c(SCC(=O)Nc2nc(-c3ccc(C)cc3)cs2)nnc1-c1ccccc1O,,> 25,> 25,1.68 µM,1.65,1.71
CCC(C)(C)NC(=O)C(c1ccc(OC)cc1)N(CC1CCCO1)C(=O)CCC(=O)Nc1cc(C)on1 (centres undefined),> 25 µM (inactive),> 25,> 25,7.02 µM,8.17,5.88
COc1ccc2[nH]c3c(c2c1)CCN1C(=O)C(CC(=O)NCC24CC5CC(CC(C5)C2)C4)C[C@H](C(=O)N2CCOCC2)[C@@]31CCC1CCCC1 (some centres undefined),> 25 µM (inactive),> 25,> 25,,4.99,> 25
COc1ccc(NC(=O)O[C@@H](C)[C@@H]2CN3CCc4c([nH]c5ccc(-c6ccc(OC)cc6)cc45)[C@@H]3C[C@@H]2N(C)C(=O)Nc2ccc(OC)cc2)cc1,> 25 µM (inactive),> 25,> 25,8.04 µM,7.66,8.42
COc1cc(CNC(=O)Nc2nc(C(N)Cc3ccc(C(F)(F)F)cc3)cs2)cc(OC)c1OC (centres undefined),> 25 µM (inactive),> 25,> 25,8.38 µM,8.1,8.66
CN(C)CCCn1c(=O)n(C2CCCCC2)c(=O)c2c3c(sc21)CCCCC3,> 25 µM (inactive),> 25,> 25,> 25 µM (inactive),> 25,> 25
Cc1ccc(Nc2nc(OC(C(F)(F)F)C(F)(F)F)nc(N3CCOCC3)n2)cc1,,22.3,> 25,7.62 µM,7.92,7.32
COc1cc(C(=O)N2CCN(c3cc(Cl)ccc3Cl)CC2)cc(OC)c1OC,> 25 µM (inactive),> 25,> 25,> 25 µM (inactive),> 25,> 25
CSc1nc(N(C)NC(=O)c2ccccc2)c2ccccc2n1,> 25 µM (inactive),> 25,> 25,17.8 µM (inactive),22,13.6
CCC1(O)CC2CN(CCc3c([nH]c4ccccc34)C(C(=O)OC)(c3cc4c(cc3OC)N(C=O)C3C(O)(C(=O)OC)C(OC(C)=O)C5(CC)C=CCN6CCC43C65)C2)C1 (centres undefined),> 25 µM (inactive),> 25,> 25,,< 0.78,> 25
C[C@@H]1CN([C@H](C)CO)C(=O)c2cccc(NC(=O)Nc3ccc(C(F)(F)F)cc3)c2O[C@H]1CN(C)S(=O)(=O)c1cccs1,> 25 µM (inactive),> 25,> 25,15.9 µM (inactive),13.8,18
CCCSc1nc(SCC(=O)NCc2ccccc2)c2c3c(sc2n1)COC(C)(CC)C3 (centres undefined),> 25 µM (inactive),> 25,> 25,> 25 µM (inactive),> 25,> 25
c1ccc(-c2nc(N3CCOCC3)cc(N3CCOCC3)n2)cc1,> 25 µM (inactive),> 25,> 25,9.99 µM,5.81,14.2
CNC(=S)NN=C(C)c1ccc(OC)cc1O,> 25 µM (inactive),> 25,> 25,> 25 µM (inactive),> 25,> 25
Cc1ccc(CNC(=O)c2ccc(N3CCC4(CC3)CC(c3ccccc3)=NO4)c(NC(=O)c3ccc(Br)cc3)c2)cc1,,> 25,> 25,4.43 µM,3.68,5.18
